Measured values: PubChem BioAssay (NCI)
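A five-concentration, 48-hour dose response in 96-well plates underlies each endpoint, interpolated linearly between surrounding concentrations. The concentration for full growth arrest is given as TGI.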 Where a SMILES comes first, the peptide text is derived from it. The star is where a group is joined. Cbz = O=C(OCc1ccccc1)*

Experiments:
Assay in all cases: NCI-60 cell line screen, 48 h
[1] = system: A549 NSCLC
[2] = system: COLO 205 colon
[3] = system: HCC-2998 colon
[4] = system: HCT-116 colon
[5] = system: HOP-62 NSCLC
[6] = system: LOX IMVI melanoma
[7] = system: M14 melanoma
[8] = system: MALME-3M melanoma
[9] = system: MDA-MB-435
[10] = system: MDA-N
[11] = system: MOLT-4 leukemia
[12] = system: PC-3 prostate
[13] = system: SF-268 CNS
[14] = system: SF-539 CNS
[15] = system: SK-MEL-2 melanoma
[16] = system: SK-MEL-28 melanoma
[17] = system: SN12C renal
[18] = system: SW-620 colon
[19] = system: UACC-62 melanoma
[20] = system: K-562 leukemia

| SMILES | TGI [1] [µM] | TGI [2] [µM] | TGI [3] [µM] | TGI [4] [µM] | TGI [5] [µM] | TGI [6] [µM] | TGI [7] [µM] | TGI [8] [µM] | TGI [9] [µM] | TGI [10] [µM] | TGI [11] [µM] | TGI [12] [µM] | TGI [13] [µM] | TGI [14] [µM] | TGI [15] [µM] | TGI [16] [µM] | TGI [17] [µM] | TGI [18] [µM] | TGI [19] [µM] | TGI [20] [µM] |
| --- | --- | --- | --- | --- | --- | --- | --- | --- | --- | --- | --- | --- | --- | --- | --- | --- | --- | --- | --- | --- |
| CC(=O)OCCOCCN1CCN(c2c(O)c3c(c(O)c2Cl)C(=O)C=CC3=O)CC1 | 3.94 | 0.68 | 4.31 | 0.72 | 7.1 | 1.66 | 1.48 | 0.96 | 1.95 | 1.79 | 2.51 | 3.28 | 3.62 | 3.37 | 3.26 | 2.22 | 1.77 | 0.475 | 2.81 | – |
| Cc1nc2cccc([N+](=O)[O-])c2n1CCCN(C)C | > 100 | > 100 | > 100 | > 100 | > 100 | > 100 | > 100 | > 100 | > 100 | > 100 | – | > 100 | > 100 | – | > 100 | > 100 | > 100 | > 100 | > 100 | > 100 |
| CS/C=C\C(=O)O[C@H]1C[C@@H]2[C@@H](O)c3occ(C)c3C[C@]2(C)[C@@H](C)C1 | – | 35.6 | 85.7 | 31.4 | 40.9 | 32.8 | 38.5 | 35.6 | 43.6 | 47.2 | 56.3 | > 100 | 82.3 | 37.7 | – | 35.9 | 30.2 | > 100 | 37.9 | 47 |
| CCCCCCCCCCCCCCCCOc1ccc(/C=C/C2=[N+](CCCl)CCO2)cc1 | > 100 | > 100 | > 100 | > 100 | > 100 | > 100 | > 100 | > 100 | > 100 | > 100 | > 100 | > 100 | – | > 100 | > 100 | > 100 | > 100 | > 100 | > 100 | > 100 |
| Nc1ccc(OCCCc2c(-c3ccccc3)nc(N)[nH]c2=O)cc1 | – | > 100 | > 100 | > 100 | > 100 | > 100 | > 100 | > 100 | > 100 | > 100 | > 100 | > 100 | > 100 | > 100 | – | > 100 | > 100 | > 100 | 43 | > 100 |
| O=C1C2CC=CCC2C(=O)N1n1c(Cc2ccccc2)n[nH]c1=O (stereo not given) | > 100 | > 100 | > 100 | > 100 | > 100 | > 100 | > 100 | > 100 | > 100 | > 100 | > 100 | > 100 | > 100 | > 100 | > 100 | – | > 100 | > 100 | > 100 | > 100 |
| O=C1Nc2ccccc2/C1=C\c1c(Cl)nc2n1CCS2 | > 100 | 38.5 | 35.3 | 68 | > 100 | > 100 | > 100 | 62.1 | 43.9 | 43.6 | 97.9 | 80.4 | 94.8 | – | 32.5 | > 100 | > 100 | > 100 | 32.2 | > 100 |
| CCn1c(=O)c2c3cc(OC(C)=O)ccc3oc2c2ccc(OC(C)=O)cc21 | > 100 | 55.6 | 58.2 | > 100 | > 100 | – | > 100 | > 100 | > 100 | > 100 | > 100 | > 100 | > 100 | 94.3 | – | > 100 | > 100 | > 100 | > 100 | > 100 |
| Cc1nc2ccccc2c(=O)n1/N=C/c1ccc(N(C)C)cc1 | > 100 | > 100 | > 100 | > 100 | > 100 | > 100 | > 100 | > 100 | > 100 | > 100 | > 100 | > 100 | > 100 | > 100 | > 100 | > 100 | > 100 | > 100 | > 100 | – |
| CCOC(=O)CNC(=O)C(C)NC(=O)C(NC(=O)OCc1ccccc1)C(C)C (stereo not drawn) (Cbz-Val-Ala-Gly-OEt; configuration not given here) | > 100 | > 100 | > 100 | > 100 | > 100 | – | > 100 | > 100 | > 100 | > 100 | > 100 | > 100 | > 100 | > 100 | > 100 | > 100 | > 100 | > 100 | > 100 | > 100 |
| N=C(N)SCc1ccc(N=C=S)cc1 | 30.5 | 28.2 | 30.4 | 27.2 | 32.5 | 28 | – | 27.4 | 26 | 26.6 | > 100 | 30.1 | 35.1 | 27.3 | 23 | 28.7 | 28.5 | 29.1 | 23.7 | 44 |
| Cc1nc2ccccc2n1Cc1nnc2n1N=C(c1ccccc1)CS2 | > 100 | > 100 | 68.1 | > 100 | > 100 | – | > 100 | > 100 | > 100 | > 100 | > 100 | 53.6 | > 100 | > 100 | 40.7 | > 100 | > 100 | > 100 | 99.4 | – |
| O=c1c2c3c(sc2nc2n1N=C(c1ccc([N+](=O)[O-])cc1)CS2)CCCC3 | > 100 | > 100 | > 100 | > 100 | > 100 | > 100 | – | > 100 | > 100 | > 100 | > 100 | > 100 | > 100 | > 100 | – | > 100 | > 100 | > 100 | > 100 | > 100 |
| CC(=O)OC(=C(C#N)C#N)c1nccnc1C(C)=O | > 20 | 11.5 | > 20 | – | – | > 20 | 11.8 | > 20 | > 20 | 17.3 | > 20 | > 20 | 7.67 | > 20 | > 20 | > 20 | > 20 | > 20 | > 20 | > 20 |
| NC(=O)SCC(=O)Nc1ccc2ncccc2c1 | > 100 | > 100 | > 100 | > 100 | > 100 | > 100 | > 100 | > 100 | > 100 | > 100 | – | > 100 | > 100 | > 100 | > 100 | > 100 | > 100 | > 100 | > 100 | > 100 |
| CCCCN1C(=O)CS/C1=N/Nc1nc2c([nH]1)c(=O)n(C)c(=O)n2C | > 100 | > 100 | > 100 | 29.3 | > 100 | – | > 100 | > 100 | 40.7 | 36.6 | 64.7 | > 100 | > 100 | > 100 | > 100 | > 100 | > 100 | – | > 100 | > 100 |
| Nc1[nH]c(=S)c2c(N)n[nH]c2c1C(=O)Nc1ccc(Cl)cc1 | > 100 | > 100 | > 100 | > 100 | – | 40.1 | > 100 | > 100 | > 100 | > 100 | > 100 | > 100 | > 100 | > 100 | > 100 | > 100 | > 100 | > 100 | > 100 | > 100 |
| NC(=O)C1N=NSC1NC(=O)c1ccc([N+](=O)[O-])cc1 (stereo not given) | > 100 | > 100 | > 100 | > 100 | > 100 | – | > 100 | > 100 | > 100 | > 100 | > 100 | > 100 | > 100 | – | 65 | > 100 | > 100 | > 100 | > 100 | > 100 |
| CCOP(C)(=O)/C(Cc1ccc(OC)c(OC)c1)=N\O (stereo not given) | > 100 | > 100 | > 100 | > 100 | > 100 | > 100 | > 100 | > 100 | > 100 | > 100 | > 100 | > 100 | – | > 100 | > 100 | > 100 | > 100 | > 100 | > 100 | > 100 |
| Cc1nn(-c2ccccc2)c2nc3ccc(Cl)cc3c(-c3ccccc3)c12 | > 100 | > 100 | > 100 | > 100 | > 100 | > 100 | > 100 | > 100 | > 100 | > 100 | > 100 | > 100 | > 100 | – | > 100 | > 100 | > 100 | > 100 | > 100 | – |
